Structures can show the parent of a compound that is named as a salt.
Each compound was assayed against T1, hNaV1.7 (Homo sapiens, UniProt Q15858) (assay: Patch voltage clamp electrophysiology (EP), Syncropatch 384PE, Nav1.7 in CHO cells). Conditions: hNaV1.7 EP_SP, holding potential −50 mV, inhibition based on 7.5 min compound incubation.
T1 construct: expressed in transfected cells
T1 sequence (Q15858 1-1977 isoform Q15858-3): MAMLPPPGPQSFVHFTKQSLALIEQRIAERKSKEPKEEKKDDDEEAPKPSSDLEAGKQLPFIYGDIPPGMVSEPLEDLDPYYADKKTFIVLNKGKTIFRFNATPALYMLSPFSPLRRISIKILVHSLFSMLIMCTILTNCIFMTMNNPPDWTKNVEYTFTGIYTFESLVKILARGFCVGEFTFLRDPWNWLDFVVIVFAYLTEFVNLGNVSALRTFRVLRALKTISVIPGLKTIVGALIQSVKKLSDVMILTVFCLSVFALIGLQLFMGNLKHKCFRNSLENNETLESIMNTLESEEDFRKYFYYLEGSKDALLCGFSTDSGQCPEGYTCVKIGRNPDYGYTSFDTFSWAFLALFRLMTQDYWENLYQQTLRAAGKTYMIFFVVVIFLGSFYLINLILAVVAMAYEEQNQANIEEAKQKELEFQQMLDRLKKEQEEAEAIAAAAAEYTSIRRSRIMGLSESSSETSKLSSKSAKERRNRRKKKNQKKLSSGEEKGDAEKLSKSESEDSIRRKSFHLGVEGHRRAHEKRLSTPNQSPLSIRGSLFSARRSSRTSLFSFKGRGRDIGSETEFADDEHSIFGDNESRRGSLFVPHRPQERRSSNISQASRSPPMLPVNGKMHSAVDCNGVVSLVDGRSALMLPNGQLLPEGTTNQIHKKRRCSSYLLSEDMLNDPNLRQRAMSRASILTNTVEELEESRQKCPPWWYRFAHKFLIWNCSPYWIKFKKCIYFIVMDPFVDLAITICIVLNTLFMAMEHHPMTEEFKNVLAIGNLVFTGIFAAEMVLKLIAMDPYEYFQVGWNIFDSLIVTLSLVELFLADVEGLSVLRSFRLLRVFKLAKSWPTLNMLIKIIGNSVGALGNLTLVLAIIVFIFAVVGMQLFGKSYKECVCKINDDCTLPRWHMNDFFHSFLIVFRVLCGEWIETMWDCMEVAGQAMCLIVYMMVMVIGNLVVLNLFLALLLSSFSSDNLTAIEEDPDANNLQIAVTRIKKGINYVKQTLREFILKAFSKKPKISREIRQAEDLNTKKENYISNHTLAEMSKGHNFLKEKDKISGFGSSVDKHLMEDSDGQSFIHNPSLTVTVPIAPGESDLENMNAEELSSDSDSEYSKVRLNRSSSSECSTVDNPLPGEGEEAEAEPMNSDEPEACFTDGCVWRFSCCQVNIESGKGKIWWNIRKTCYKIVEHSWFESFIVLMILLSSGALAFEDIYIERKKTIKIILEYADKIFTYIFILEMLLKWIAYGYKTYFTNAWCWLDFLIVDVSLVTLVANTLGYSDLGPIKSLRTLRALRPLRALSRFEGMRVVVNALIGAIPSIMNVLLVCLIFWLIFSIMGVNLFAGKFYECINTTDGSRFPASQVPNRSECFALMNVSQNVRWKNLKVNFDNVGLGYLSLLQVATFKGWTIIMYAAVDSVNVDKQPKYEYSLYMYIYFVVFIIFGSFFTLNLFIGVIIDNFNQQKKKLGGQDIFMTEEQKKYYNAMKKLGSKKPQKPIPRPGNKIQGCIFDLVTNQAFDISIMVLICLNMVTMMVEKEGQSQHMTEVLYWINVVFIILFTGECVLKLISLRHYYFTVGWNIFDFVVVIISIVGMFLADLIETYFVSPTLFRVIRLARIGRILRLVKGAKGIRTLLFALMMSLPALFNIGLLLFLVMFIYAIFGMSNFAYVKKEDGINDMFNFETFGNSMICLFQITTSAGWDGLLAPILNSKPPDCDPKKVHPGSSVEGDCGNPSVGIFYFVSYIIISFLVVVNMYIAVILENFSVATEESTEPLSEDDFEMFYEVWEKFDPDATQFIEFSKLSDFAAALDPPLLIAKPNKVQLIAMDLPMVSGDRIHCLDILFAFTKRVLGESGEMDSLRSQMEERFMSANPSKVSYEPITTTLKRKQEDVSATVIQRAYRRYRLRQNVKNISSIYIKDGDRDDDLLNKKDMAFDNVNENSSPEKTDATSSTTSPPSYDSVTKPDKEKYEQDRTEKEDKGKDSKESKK
Format: cell-based
With `O=C(NS(=O)(=O)N1CC[C@@H]2[C@@H](C1)OCC(=O)N2c1ccccc1)c1cc(Cl)c(OCC2CCCC2)cc1F` (single isomer, unassigned) [Example 44] the IC50 was 130 nM.

Same assay, conditions: holding potential −50 mV, inhibition based on 7.5 min compound incubation, read-out: hNaV1.7 EP_SP
Work on `O=S(=O)(Nc1noc2cc(OCC3CCCC3)c(C3CC3)cc12)N1CCC(O[C@H]2CCNC2)CC1` (single isomer, unassigned) [Example 92, 2,2,2-trifluoroacetate] yielded an IC50 of 69 nM.
In the case of `O=C(NS(=O)(=O)c1ccc(OCC2CNC2)cc1)c1cc(Cl)c(OCC2CCCC2)cc1F` [Example 296, N-((4-(azetidin-3-ylmethoxy)phenyl)sulfonyl)-5-chloro-4-(cyclopentylmethoxy)-2-fluorobenzamide], the IC50 is reported as 280 nM.
Compound `C[C@H]1CCCN1S(=O)(=O)NC(=O)c1cc(Cl)c(OCC2CCCC2)cc1F` (single isomer, unassigned) [Example 223] has an IC50 of 39 nM.
`Cn1ccnc1COc1ccc(S(=O)(=O)NC(=O)c2cc(Cl)c(OCC3CCCC3)cc2F)cc1` [Example 312, 5-chloro-4-(cyclopentylmethoxy)-2-fluoro-N-((4-((1-methyl-1H-imidazol-2-yl)methoxy)phenyl)sulfonyl)benzamide] was tested, and the IC50 was 83 nM.
`O=C(NS(=O)(=O)c1ccc(OCc2cccc(F)c2)cc1)c1cc(Cl)c(OCC2CCCC2)cc1F` [Example 298, 5-chloro-4-(cyclopentylmethoxy)-2-fluoro-N-((4-((3-fluorobenzyl)oxy)-phenyl)sulfonyl)benzamide] showed an IC50 of 220 nM.
For `O=C(NS(=O)(=O)Cc1ccc2ncccc2c1)c1cc(Cl)c(OCC2CCCC2)cc1F` [Example 273, 5-chloro-4-(cyclopentylmethoxy)-2-fluoro-N-((quinolin-6-ylmethyl)sulfonyl)benzamide], the IC50 was 230 nM.
In the case of `O=C(NS(=O)(=O)c1ccc(OCc2ccccc2Cl)cc1)c1cc(Cl)c(OCC2CCCC2)cc1F` [Example 264, 5-chloro-N-((4-((2-chlorobenzyl)oxy)phenyl)sulfonyl)-4-(cyclopentylmethoxy)-2-fluorobenzamide], the IC50 is reported as 84 nM.
Work on `O=C(NS(=O)(=O)CCCOc1cccc(C(F)(F)F)c1)c1cc(Cl)c(OCC2CCCC2)cc1F` [Example 253, 5-chloro-4-(cyclopentylmethoxy)-2-fluoro-N-((3-(3-(trifluoromethyl)phenoxy)propyl)sulfonyl)benzamide] yielded an IC50 of 420 nM.
In the case of `O=C(NS(=O)(=O)N1C[C@@H]2CC[C@@H](C2)C1)c1cc(Cl)c(OCC2CCCC2)cc1F` [Example 230, N-(((1R,5S)-3-azabicyclo[3.2.1]octan-3-yl)sulfonyl)-5-chloro-4-(cyclopentylmethoxy)-2-fluorobenzamide], the IC50 is reported as 63 nM.
Compound `NC(=O)[C@@H]1Cc2cc(S(=O)(=O)NC(=O)c3cc(Cl)c(OCC4CCCC4)cc3F)ccc2O1` [Example 277, (S)-5-(N-(5-chloro-4-(cyclopentylmethoxy)-2-fluorobenzoyl)sulfamoyl)-2,3-dihydrobenzofuran-2-carboxamide] has an IC50 of 590 nM.
`CN1CC(OC2CCN(S(=O)(=O)NC(=O)c3cc(C4CCC4)c(OCC4CCCC4)cc3F)CC2)C1` [Example 7, 5-cyclobutyl-4-(cyclopentylmethoxy)-2-fluoro-N-((4-((1-methylazetidin-3-yl)oxy)piperidin-1-yl)sulfonyl)benzamide 2,2,2-trifluoroacetate] was tested, and the IC50 was 8 nM.
For `C[C@@H]1CCCN1S(=O)(=O)NC(=O)c1cc(Cl)c(OCC2CCCC2)cc1F` (single isomer, unassigned) [Example 222], the IC50 was 33 nM.
`O=C(NS(=O)(=O)c1ccc(Oc2ccc(Cl)cc2)cc1)c1cc(Cl)c(OCC2CCCC2)cc1F` [Example 288, 5-chloro-N-((4-(4-chlorophenoxy)phenyl)sulfonyl)-4-(cyclopentylmethoxy)-2-fluorobenzamide] was tested, and the IC50 was 490 nM.
`CC(=O)N1CCc2cccc(COc3ccc(S(=O)(=O)NC(=O)c4cc(Cl)c(OCC5CCCC5)cc4F)cc3)c2C1` [Example 297, N-((4-((2-acetyl-1,2,3,4-tetrahydroisoquinolin-8-yl)methoxy)phenyl)sulfonyl)-5-chloro-4-(cyclopentylmethoxy)-2-fluorobenzamide] showed an IC50 of 22 nM.
For `CO[C@H]1CC[C@@H](S(=O)(=O)NC(=O)c2cc(Cl)c(OCC3CCCC3)cc2F)CC1` [Example 87, cis-5-chloro-4-(cyclopentylmethoxy)-2-fluoro-N-((4-methoxycyclohexyl)sulfonyl)benzamide], the IC50 was 390 nM.
For `O=C(NS(=O)(=O)c1ccc2ccccc2c1)c1cc(Cl)c(OCC2CCCC2)cc1F` [Example 290, 5-chloro-4-(cyclopentylmethoxy)-2-fluoro-N-(naphthalen-2-ylsulfonyl)benzamide], the IC50 was 760 nM.
Compound `CN1CC[C@H](OC2CCN(S(=O)(=O)NC(=O)c3cc(Cl)c(OCC4CCCC4)cc3F)CC2)C1` (single isomer, unassigned) [Example 326] has an IC50 of 230 nM.
For `CC(C)S(=O)(=O)NC(=O)c1cc(Cl)c(OCC2CCCC2)cc1F` [Example 247, 5-chloro-4-(cyclopentylmethoxy)-2-fluoro-N-(isopropylsulfonyl)benzamide], the IC50 was 52 nM.
`CN1CC(OC2CCN(S(=O)(=O)NC(=O)c3cc(Cl)c(Oc4ccc(Cl)c(C(F)(F)F)c4)cc3F)CC2)C1` [Example 239, 5-chloro-4-(4-chloro-3-(trifluoromethyl)phenoxy)-2-fluoro-N-((4-((1-methylazetidin-3-yl)oxy)piperidin-1-yl)sulfonyl)benzamide] gave an IC50 of 25 nM.
Compound `CN(C)[C@H]1CCCC[C@@H]1Nc1ccc(S(=O)(=O)NC(=O)c2ccc(OCC3CCCC3)c(Cl)c2)c(F)c1` [Example 57, 3-chloro-4-(cyclopentylmethoxy)-N-((4-(((1S,2S)-2-(dimethylamino)-cyclohexyl)amino)-2-fluorophenyl)sulfonyl)benzamide formate] has an IC50 of 540 nM.
Work on `CN(C)[C@H]1CCCC[C@@H]1OC1CCN(S(=O)(=O)NC(=O)c2cc(C3CC3)c(OCC3CCCC3)cc2F)CC1` [Example 331, 4-(cyclopentylmethoxy)-5-cyclopropyl-N-((4-(((1S,2S)-2-(dimethylamino)cyclohexyl)oxy)piperidin-1-yl)sulfonyl)-2-fluorobenzamide] yielded an IC50 of 140 nM.
`CCc1cccc(S(=O)(=O)NC(=O)c2cc(Cl)c(OCC3CCCC3)cc2F)c1` [Example 244, 5-chloro-4-(cyclopentylmethoxy)-N-((3-ethylphenyl)sulfonyl)-2-fluorobenzamide] gave an IC50 of 770 nM.
For `O=C(NS(=O)(=O)N1CC(O[C@@H]2CCNC2)C1)c1cc(Cl)c(OCC2CCCC2)cc1F` (single isomer, unassigned) [Example 31, 2,2,2-trifluoroacetate], the IC50 was 390 nM.
`O=C(NS(=O)(=O)c1ccc2c(c1)CCC2)c1cc(Cl)c(OCC2CCCC2)cc1F` [Example 262, 5-chloro-4-(cyclopentylmethoxy)-N-((2,3-dihydro-1H-inden-5-yl)sulfonyl)-2-fluorobenzamide] showed an IC50 of 270 nM.
In the case of `CN1CC(OC2CCN(S(=O)(=O)NC(=O)c3cc(C4CC4)c(OCC4CCCC4)cc3F)CC2)C1` [Example 4, 4-(cyclopentylmethoxy)-5-cyclopropyl-2-fluoro-N-((4-((1-methylazetidin-3-yl)oxy)piperidin-1-yl)sulfonyl) benzamide], the IC50 is reported as 15 nM.
`NC[C@@H]1CCN(S(=O)(=O)NC(=O)c2cc(Cl)c(OCC3CCCC3)cc2F)C1` [Example 232, (S)—N-((3-(aminomethyl)pyrrolidin-1-yl)sulfonyl)-5-chloro-4-(cyclopentylmethoxy)-2-fluorobenzamide 2,2,2-trifluoroacetate] showed an IC50 of 880 nM.
In the case of `O=C(NS(=O)(=O)CC1Cc2ccccc2C1)c1cc(Cl)c(OCC2CCCC2)cc1F` [Example 266, 5-chloro-4-(cyclopentylmethoxy)-N-(((2,3-dihydro-1H-inden-2-yl)methyl)sulfonyl)-2-fluorobenzamide], the IC50 is reported as 130 nM.
Work on `O=C(NS(=O)(=O)N1CCCCCC1)c1cc(Cl)c(OCC2CCCC2)cc1F` [Example 227, N-(azepan-1-ylsulfonyl)-5-chloro-4-(cyclopentylmethoxy)-2-fluorobenzamide] yielded an IC50 of 20 nM.
Work on `O=C(NS(=O)(=O)c1ccc(O[C@@H]2CCNC2)cc1)c1cc(Cl)c(OCC2CCCC2)cc1F` (single isomer, unassigned) [Example 69] yielded an IC50 of 130 nM.
Work on `CC(C)COc1cc(F)c(C(=O)NS(=O)(=O)N2CCC(OC3CN(C)C3)CC2)cc1C1CC1` [Example 237, 5-cyclopropyl-2-fluoro-4-isobutoxy-N-((4-((1-methylazetidin-3-yl)oxy)piperidin-1-yl)sulfonyl)benzamide formic acid] yielded an IC50 of 50 nM.
With `C[C@@H]1CCc2ccccc2N1S(=O)(=O)NC(=O)c1cc(Cl)c(OCC2CCCC2)cc1F` (single isomer, unassigned) [Example 18] the IC50 was 24 nM.
`Cc1cc(C)cc(COc2ccc(S(=O)(=O)NC(=O)c3cc(Cl)c(OCC4CCCC4)cc3F)cc2)c1` [Example 303, 5-chloro-4-(cyclopentylmethoxy)-N-((4-((3,5-dimethyl-benzyl)oxy)phenyl)sulfonyl)-2-fluorobenzamide] showed an IC50 of 260 nM.
`O=C(NS(=O)(=O)N1CCCCC1)c1cc(Cl)c(OCC2CCCC2)cc1F` [Example 21, 5-chloro-4-(cyclopentylmethoxy)-2-fluoro-N-(piperidin-1-ylsulfonyl)benzamide] was tested, and the IC50 was 14 nM.
`Cc1cccc(COc2ccc(S(=O)(=O)NC(=O)c3cc(Cl)c(OCC4CCCC4)cc3F)cc2)c1` [Example 260, 5-chloro-4-(cyclopentylmethoxy)-2-fluoro-N-((4-((3-methylbenzyl)oxy)phenyl)sulfonyl)benzamide] gave an IC50 of 200 nM.
For `CN(C)[C@H]1CCCC[C@@H]1Nc1cc(F)c(S(=O)(=O)NC(=O)c2cc(Cl)c(OCC3CCCC3)cc2F)c(F)c1` [Example 206, 5-chloro-4-(cyclopentylmethoxy)-N-((4-(((1S,2S)-2-(dimethylamino)-cyclohexyl)amino)-2,6-difluorophenyl)sulfonyl)-2-fluorobenzamide], the IC50 was 50 nM.
For `CN(C)[C@H]1CCCC[C@@H]1Nc1ccc(S(=O)(=O)NC(=O)c2cc(Cl)c(OCC3CCCC3)cc2F)cc1` [Example 64, 5-chloro-4-(cyclopentylmethoxy)-N-((4-(((1S,2S)-2-(dimethylamino)-cyclohexyl)amino)phenyl)sulfonyl)-2-fluorobenzamide formate], the IC50 was 290 nM.

Source: US20240228463A1, “SODIUM CHANNEL INHIBITORS AND METHODS OF DESIGNING SAME” (Genentech, Inc., priority 2021, published 2024)
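Also: Nav1.7 stably expressed from cDNA in CHO cells, holding potential of −50 mV kept for the entire experiment.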
